Columns and labels:
[1] = system: Crabgrass (CG); test: Post-emergence herbicide test; assay type: in vivo, Digitaria sanquinalis; settings: Digitaria sanguinalis, post-emergence, 336 h, two weeks after treatment; for pest or weed control at 4483.4 g/ha: 4 lb/acre
Summary of the method: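 Crabgrass (Digitaria sanquinalis) was surface seeded individually in 3' plastic pots of potting soil, covered with screened soil, and watered by sub-irrigation in greenhouse trays. Planting was staggered so seedlings reached the target stage together. Post-emergence sprays were applied in a hood with a removable belt and fixed nozzle, and control was visually rated two weeks after treatment.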

[2] = system: Barnyard grass (BG); test: Post-emergence herbicide test; assay type: in vivo; settings: Echinochloa crus-galli, 336 h, two weeks after treatment
Summary of the method: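 Greenhouse pot-grown barnyard grass seedlings sprayed post-emergence at 8 lbs active compound per acre (some at 4 lbs/acre) in 38 gallons per acre, then sub-irrigated. Injury or control rated visually two weeks after treatment.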

[3] = system: Bean (BN); test: Post-emergence herbicide test; assay type: in vivo, Phaseolus vulgaris var. Black Valentine; settings: Phaseolus vulgaris, post-emergence, 336 h, two weeks after treatment; for pest or weed control at 4483.4 g/ha: 4 lb/acre
Summary of the method: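 Snapbean (Phaseolus vulgaris var. Black Valentine) was tested post-emergence. Four seeds were sown in 3' plastic pots of potting soil at a depth equal to the seed diameter, then sub-irrigated in greenhouse trays. Planting dates were staggered so plants were sprayed once primary leaves had expanded, with the growing point at the primary leaf nodes.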

[4] = system: Turnip (TP); test: Post-emergence herbicide test; assay type: in vivo, Brassica sp.; settings: Brassica rapa, post-emergence, 336 h, two weeks after treatment; for pest or weed control at 4483.4 g/ha: 4 lb/acre
Summary of the method: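 A greenhouse post-emergence herbicide test on turnip. Seeds were sown on the surface of potting soil in 3' plastic pots, lightly covered with screened soil and watered from below. Planting was timed so seedlings had 1 or 2 true leaves above the cotyledons at spraying, done in a hood with a fixed nozzle. Control or injury was scored by eye after two weeks.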

[5] = system: Cotton (CT); test: Post-emergence herbicide test; assay type: in vivo, Gossypium hirsutum var. DPL smooth leaf; settings: Gossypium hirsutum, post-emergence, 336 h, two weeks after treatment; for pest or weed control at 4483.4 g/ha: 4 lb/acre
Summary of the method: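 Cotton (Gossypium hirsutum var. DPL smooth leaf) was grown in 3' plastic pots of potting soil, four seeds per pot, planted at a depth equal to the seed diameter and watered by sub-irrigation. At the stage of expanded cotyledons with the first true leaf 1' long, plants were sprayed post-emergence in a hood with a fixed nozzle over a moving belt. Percent control was rated visually two weeks later.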

[6] = system: Johnson grass (JG); test: Post-emergence herbicide test; assay type: in vivo, Sorgum helepense; settings: Sorghum halepense, 336 h, two weeks after treatment; for pest or weed control at 4483.4 g/ha: 4 lb/acre
Summary of the method: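 Greenhouse pot-grown seedlings sprayed post-emergence at 8 lbs compound per acre (some at 4 lbs/acre) in 38 gallons per acre spray volume. Sub-irrigated thereafter. Injury/control rated visually two weeks after treatment.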

[7] = system: Corn (CN); test: Post-emergence herbicide test; assay type: in vivo; settings: Zea mays, 336 h, two weeks after treatment; for pest or weed control at 4483.4 g/ha: 4 lb/acre
Summary of the method: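 Greenhouse seedlings grown in potting soil and sprayed post-emergence at 8 lbs compound/acre (formulations also made for 4 lbs/acre) in 38 gallons/acre spray volume. Watering by sub-irrigation only. Injury or control rated visually two weeks after treatment.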

[8] = system: Yellow foxtail grass (YF); test: Post-emergence herbicide test; assay type: in vivo, Setaria glauca; settings: Setaria, 336 h, 4 lb/acre, two weeks after treatment
Experimental: Yellow foxtail grass (YF)--Setaria glauca
(§1) All crop and weed species were planted individually in 3' plastic pots containing potting soil. Four seeds each of corn, cotton, and snapbeans were seeded to a depth equal to the diameter of the seed. All other species were surface seeded and sprinkled with screened soil in an amount sufficient to cover the seed. Immediately after planting, all pots were watered by sub-irrigation in greenhouse trays. Pots for the pre-emergence phase were seeded one day before treatment.
(§2) Planting dates for the post-emergence phase were varied so that all seedlings would reach the desired stage of development simultaneously. The proper stage of seedling development for treatment in the post-emergence phase is as follows:
(§3) Compounds were tested at rates of application equivalent to 8 lbs. of actual compound per acre in a spray volume of 38 gallons per acre. Spray hood constants required to deliver the above volume are as follows:
(§4) Formulations for spray applications were prepared in 50 ml volumes with the following three components:
(§5) Formulations for the 4 lbs/acre rate were prepared by adjusting the amount of active ingredient accordingly.
(§6) Spray applications were made in a hood containing a removable belt and fixed spray nozzle. For passage through the spray hood, one pot of each specie (pre-emergence phase) was placed on the rear half of the flat. Treatments were removed to the greenhouse after spraying. Watering during the observation period was done only by sub-irrigation.
(§7) Two weeks after treatment, pre- and post-emergence injury or control was visually rated, and the results were as shown in the following tables. Pre-emergence data are provided in TABLE III and post-emergence data are provided in TABLE IV, for compounds having the formula illustrated in TABLE I. Correspondingly, pre-emergence and post-emergence data, respectively, are set forth in TABLES V AND VI, for compounds having the formula illustrated in TABLE II.

[9] = system: Cotton (CT); test: Pre-emergence herbicide test; assay type: in vivo, Gossypium hirsutum var. DPL smooth leaf; settings: Gossypium hirsutum, 336 h, two weeks after treatment
Summary of the method: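 Crop and weed species seeded one day before treatment, then sprayed pre-emergence at 8 lbs actual compound per acre (also 4 lbs/acre formulations) in 38 gallons per acre. Pots kept in greenhouse with sub-irrigation only; injury or control visually rated two weeks after treatment.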

[10] = system: Crabgrass (CG); test: Pre-emergence herbicide test; assay type: in vivo, Digitaria sanquinalis; settings: Digitaria sanguinalis, pre-emergence, 336 h, two weeks after treatment
Summary of the method: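 Crabgrass (Digitaria sanquinalis) was surface seeded in 3' plastic pots of potting soil, covered with screened soil, and watered by sub-irrigation in greenhouse trays. Pots were seeded one day before spraying in a hood with a moving belt and fixed nozzle. Plants stayed in the greenhouse on sub-irrigation, and pre-emergence control was rated visually two weeks after treatment.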

[11] = system: Amaranth pigweed (PW); test: Post-emergence herbicide test; assay type: in vivo, Amaranthus retroflexus; settings: 336 h, two weeks after treatment
Experimental: Amaranth pigweed (PW)--Amaranthus retroflexus
as §1, §2
Pigweed and turnips: 1 or 2 true leaves above visible cotyledons.
as §3, §4, §5, §6, §7

[12] = system: Corn (CN); test: Pre-emergence herbicide test; assay type: in vivo; settings: Zea mays, 336 h, two weeks after treatment
Summary of the method: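 Four corn seeds per pot, sown at seed-diameter depth one day before spraying, got soil surface treatment at 8 lbs/acre (4 lbs/acre formulations also prepared) in 38 gallons/acre. Pots were greenhouse-held with sub-irrigation only. Injury or control was scored visually two weeks after treatment.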

[13] = system: Barnyard grass (BG); test: Pre-emergence herbicide test; assay type: in vivo; settings: Echinochloa crus-galli, 336 h, 2 lb/acre, two weeks after treatment
Summary of the method: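 Barnyard grass surface-seeded in potting soil and sprayed pre-emergence one day after seeding, at 8 or 4 lb compound/acre in 38 gal/acre spray volume. Pots kept in greenhouse with sub-irrigation only; injury or control rated visually two weeks after treatment.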

[14] = system: Johnson grass (JG); test: Pre-emergence herbicide test; assay type: in vivo, Sorgum helepense; settings: Sorghum halepense, 336 h, two weeks after treatment
Summary of the method: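 Pots seeded one day before spraying; compound applied pre-emergence at 8 lbs/acre (or 4 lbs/acre) in 38 gallons/acre spray volume. Sub-irrigated in greenhouse; injury/control rated visually two weeks after treatment.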

[15] = system: Turnip (TP); test: Pre-emergence herbicide test; assay type: in vivo, Brassica sp.; settings: Brassica rapa, pre-emergence, 336 h, two weeks after treatment
Summary of the method: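 Turnip (Brassica sp.) seeds were surface sown in 3' plastic pots of potting soil, covered with a thin layer of screened soil, and sub-irrigated in greenhouse trays. Pots were seeded one day ahead of treatment, sprayed pre-emergence under a hood with a fixed nozzle and moving belt, then kept in the greenhouse.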

[16] = system: Amaranth pigweed (PW); test: Pre-emergence herbicide test; assay type: in vivo, Amaranthus retroflexus; settings: 336 h, two weeks after treatment
Summary of the method: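 Pigweed was surface-seeded in potted soil one day before spraying at 8 lbs compound per acre, or 4 lbs/acre, in 38 gallons per acre. Pots were kept in the greenhouse with sub-irrigation only; injury or control was rated visually two weeks after treatment.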

[17] = system: Bean (BN); test: Pre-emergence herbicide test; assay type: in vivo, Phaseolus vulgaris var. Black Valentine; settings: Phaseolus vulgaris, 336 h, two weeks after treatment
Summary of the method: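 Black Valentine bean was seeded in potting soil one day before spraying. Compound was applied pre-emergence at 8 lbs/acre (also 4 lbs/acre) in 38 gallons per acre. Plants were sub-irrigated and injury or control was rated visually after two weeks.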

Q: With `CCC(C)Sc1nnc(NC(=O)NC)s1` (centres unmarked) [Example 48] as the compound, how does the pest or weed control at 4483.4 g/ha [1] read?
A: 70%

Q: What about the pest or weed control at 4483.4 g/ha ([2]; 4 lb/acre) of the same compound?
A: 40%

Q: What about the pest or weed control at 4483.4 g/ha [3] of the same compound?
A: 50%

Q: What about the pest or weed control at 4483.4 g/ha [4] of the same compound?
A: 70%

Q: And the pest or weed control at 4483.4 g/ha [5]?
A: 100%

Q: And the pest or weed control at 4483.4 g/ha [6]?
A: 60%

Q: And the pest or weed control at 4483.4 g/ha [7]?
A: 30%

Q: What about the pest or weed control at 4483.4 g/ha [8] of the same compound?
A: 30%

Q: `CNC(=O)Nc1nnc(C(F)(F)C(F)(F)F)s1` [Example 68] was tested. Which pest or weed control at 2241.7 g/ha ([9]; 2 lb/acre) did it give?
A: 60%

Q: What about the pest or weed control at 4483.4 g/ha ([9]; 4 lb/acre) of the same compound?
A: 90%

Q: What about the pest or weed control ([1]; 2 lb/acre) of the same compound?
A: 90%

Q: What about the pest or weed control at 4483.4 g/ha [1] of the same compound?
A: 100%

Q: And the pest or weed control at 2241.7 g/ha ([2]; 2 lb/acre)?
A: 60%

Q: And the pest or weed control ([10]; 2 lb/acre)?
A: 50%

Q: And the pest or weed control at 4483.4 g/ha ([10]; 4 lb/acre)?
A: 90%

Q: What about the pest or weed control at 2241.7 g/ha ([3]; 2 lb/acre) of the same compound?
A: 90%

Q: What about the pest or weed control at 4483.4 g/ha [3] of the same compound?
A: 100%

Q: What about the pest or weed control at 2241.7 g/ha ([4]; 2 lb/acre) of the same compound?
A: 100%

Q: And the pest or weed control at 4483.4 g/ha [4]?
A: 100%

Q: And the pest or weed control at 2241.7 g/ha ([11]; 2 lb/acre)?
A: 100%

Q: What about the pest or weed control at 4483.4 g/ha ([11]; 4 lb/acre) of the same compound?
A: 100%

Q: What about the pest or weed control at 2241.7 g/ha ([12]; 2 lb/acre) of the same compound?
A: 30%

Q: And the pest or weed control at 4483.4 g/ha ([12]; 4 lb/acre)?
A: 50%

Q: What about the pest or weed control at 2241.7 g/ha ([5]; 2 lb/acre) of the same compound?
A: 80%

Q: And the pest or weed control at 4483.4 g/ha [5]?
A: 100%

Q: What about the pest or weed control ([6]; 2 lb/acre) of the same compound?
A: 80%

Q: And the pest or weed control at 4483.4 g/ha [6]?
A: 80%

Q: And the pest or weed control ([7]; 2 lb/acre)?
A: 50%

Q: And the pest or weed control at 4483.4 g/ha [7]?
A: 100%

Q: What about the pest or weed control at 2241.7 g/ha [13] of the same compound?
A: 30%

Q: What about the pest or weed control at 2241.7 g/ha ([14]; 2 lb/acre) of the same compound?
A: 20%

Q: What about the pest or weed control at 4483.4 g/ha ([14]; 4 lb/acre) of the same compound?
A: 30%

Q: What about the pest or weed control at 2241.7 g/ha ([15]; 2 lb/acre) of the same compound?
A: 60%

Q: What about the pest or weed control at 4483.4 g/ha ([15]; 4 lb/acre) of the same compound?
A: 60%

Q: What about the pest or weed control at 2241.7 g/ha ([16]; 2 lb/acre) of the same compound?
A: 100%

Q: What about the pest or weed control at 4483.4 g/ha ([16]; 4 lb/acre) of the same compound?
A: 100%

Q: What about the pest or weed control at 2241.7 g/ha ([17]; 2 lb/acre) of the same compound?
A: 0%

Q: What about the pest or weed control at 4483.4 g/ha ([17]; 4 lb/acre) of the same compound?
A: 100%
